Data as given in patent US10213433B2 (AbbVie Inc., priority 2010, dated 2019).

target: Bcl-2 protein (Homo sapiens (Human), UniProt P10415); assay: Bcl-2 binding TR-FRET (Time-Resolved Fluorescence-Resonance-Energy-Transfer) assay; conditions: inhibition constant for binding to Bcl-2 protein
Description: The smaller the Ki value, the greater is the binding affinity.

Bcl-2 protein, sequence (P10415 whole entry): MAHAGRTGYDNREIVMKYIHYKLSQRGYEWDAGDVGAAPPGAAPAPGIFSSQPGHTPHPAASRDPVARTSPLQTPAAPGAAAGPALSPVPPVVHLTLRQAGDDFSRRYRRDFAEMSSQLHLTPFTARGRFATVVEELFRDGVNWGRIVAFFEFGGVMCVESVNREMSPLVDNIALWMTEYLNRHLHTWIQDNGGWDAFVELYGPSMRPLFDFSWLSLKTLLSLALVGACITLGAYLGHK

SMILES	Ki
CC1(C)CCC(CN2CCN(c3ccc(C(=O)NS(=O)(=O)c4ccc(NCC5CCC6(CC5)COC6)c([N+](=O)[O-])c4)c(Oc4cnc5[nH]ccc5c4)c3)CC2)=C(c2ccc(Cl)cc2)C1 [Compound 365, 4-(4-{[2-(4-chlorophenyl)-4,4-dimethylcyclohex-1-en-1-yl]methyl}piperazin-1-yl)-N-({3-nitro-4-[(2-oxaspiro[3.5]non-7-ylmethyl)amino]phenyl}sulfonyl)-2-(1H-pyrrolo[2,3-b]pyridin-5-yloxy)benzamide]	< 10 pM
CC1(C)CCC(CN2CCN(c3ccc(C(=O)NS(=O)(=O)c4cnc(NC[C@H]5CC[C@@](C)(O)CC5)c([N+](=O)[O-])c4)c(Oc4cnc5[nH]ccc5c4)c3)CC2)=C(c2ccc(Cl)cc2)C1 [Compound 371, 4-(4-{[2-(4-chlorophenyl)-4,4-dimethylcyclohex-1-en-1-yl]methyl}piperazin-1-yl)-N-[(6-{[(trans-4-hydroxy-4-methylcyclohexyl)methyl]amino}-5-nitropyridin-3-yl)sulfonyl]-2-(1H-pyrrolo[2,3-b]pyridin-5-yloxy)benzamide]	< 1 pM
CC1(C)CCC(CN2CCN(c3ccc(C(=O)NS(=O)(=O)c4ccc(NC(=O)N5CCOCC5)c([N+](=O)[O-])c4)c(Oc4cnc5[nH]ccc5c4)c3)CC2)=C(c2ccc(Cl)cc2)C1 [Compound 373, N-(4-{[4-(4-{[2-(4-chlorophenyl)-4,4-dimethylcyclohex-1-en-1-yl]methyl}piperazin-1-yl)-2-(1H-pyrrolo[2,3-b]pyridin-5-yloxy)benzoyl]sulfamoyl}-2-nitrophenyl)morpholine-4-carboxamide]	< 1 pM
COCC1CCC(CNc2ccc(S(=O)(=O)NC(=O)c3ccc(N4CCN(CC5=C(c6ccc(Cl)cc6)CC(C)(C)CC5)CC4)cc3Oc3cnc4[nH]ccc4c3)cc2[N+](=O)[O-])CC1 (stereo not shown) [Compound 374, 4-(4-{[2-(4-chlorophenyl)-4,4-dimethylcyclohex-1-en-1-yl]methyl}piperazin-1-yl)-N-{[4-({[4-(methoxymethyl)cyclohexyl]methyl}amino)-3-nitrophenyl]sulfonyl}-2-(1H-pyrrolo[2,3-b]pyridin-5-yloxy)benzamide]	< 1 pM
CC1(C)CCC(CN2CCN(c3ccc(C(=O)NS(=O)(=O)c4cnc(NC[C@H]5CC[C@](C)(O)CC5)c([N+](=O)[O-])c4)c(Oc4cnc5[nH]ccc5c4)c3)CC2)=C(c2ccc(Cl)cc2)C1 [Compound 376, 4-(4-{[2-(4-chlorophenyl)-4,4-dimethylcyclohex-1-en-1-yl]methyl}piperazin-1-yl)-N-[(6-{[(cis-4-hydroxy-4-methylcyclohexyl)methyl]amino}-5-nitropyridin-3-yl)sulfonyl]-2-(1H-pyrrolo[2,3-b]pyridin-5-yloxy)benzamide]	< 1 pM
COC1(C)CCC(c2ccc(Cl)cc2)=C(CN2CCN(c3ccc(C(=O)NS(=O)(=O)c4ccc(NC[C@H]5CC[C@@](C)(O)CC5)c([N+](=O)[O-])c4)c(Oc4cnc5[nH]ccc5c4)c3)CC2)C1 (stereo partly drawn) [Compound 377, 4-(4-{[2-(4-chlorophenyl)-5-methoxy-5-methylcyclohex-1-en-1-yl]methyl}piperazin-1-yl)-N-[(4-{[(trans-4-hydroxy-4-methylcyclohexyl)methyl]amino}-3-nitrophenyl)sulfonyl]-2-(1H-pyrrolo[2,3-b]pyridin-5-yloxy)benzamide]	< 1 pM
COC1(C)CCC(c2ccc(Cl)cc2)=C(CN2CCN(c3ccc(C(=O)NS(=O)(=O)c4ccc(NCC5CCOCC5)c([N+](=O)[O-])c4)c(Oc4cnc5[nH]ccc5c4)c3)CC2)C1 (stereo not shown) [Compound 378, 4-(4-{[2-(4-chlorophenyl)-5-methoxy-5-methylcyclohex-1-en-1-yl]methyl}piperazin-1-yl)-N-({3-nitro-4-[(tetrahydro-2H-pyran-4-ylmethyl)amino]phenyl}sulfonyl)-2-(1H-pyrrolo[2,3-b]pyridin-5-yloxy)benzamide]	< 1 pM

tested on: not listed separately; assay: log D at pH 7.4 by an HPLC method; type: physicochemical; conditions: not given
Description: Table 2 below presents data for log D (a parameter related to lipophilicity) at pH 7.4, as determined by an HPLC method, for representative compounds.

chromatographic logD	SMILES
5.37	CC1(C)CCC(CN2CCN(c3ccc(C(=O)NS(=O)(=O)c4ccc(NCC5CCOCC5)c([N+](=O)[O-])c4)c(Oc4cnc5[nH]ccc5c4)c3)CC2)=C(c2ccc(Cl)cc2)C1 [Compound 5, 4-(4-{[2-(4-chlorophenyl)-4,4-dimethylcyclohex-1-en-1-yl]methyl}piperazin-1-yl)-N-({3-nitro-4-[(tetrahydro-2H-pyran-4-ylmethyl)amino]phenyl}sulfonyl)-2-(1H-pyrrolo[2,3-b]pyridin-5-yloxy)benzamide]
5.74	CN1CCN(Nc2ccc(S(=O)(=O)NC(=O)c3ccc(N4CCN(CC5=C(c6ccc(Cl)cc6)CC(C)(C)CC5)CC4)cc3Oc3cnc4[nH]ccc4c3)cc2[N+](=O)[O-])CC1 [Compound 6, 4-(4-{[2-(4-chlorophenyl)-4,4-dimethylcyclohex-1-en-1-yl]methyl}piperazin-1-yl)-N-({4-[(4-methylpiperazin-1-yl)amino]-3-nitrophenyl}sulfonyl)-2-(1H-pyrrolo[2,3-b]pyridin-5-yloxy)benzamide]
5.71	CC1(C)CCC(CN2CCN(c3ccc(C(=O)NS(=O)(=O)c4ccc(N[C@H]5CC[C@H](N6CCOCC6)CC5)c([N+](=O)[O-])c4)c(Oc4cnc5[nH]ccc5c4)c3)CC2)=C(c2ccc(Cl)cc2)C1 [Compound 9, trans-4-(4-{[2-(4-chlorophenyl)-4,4-dimethylcyclohex-1-en-1-yl]methyl}piperazin-1-yl)-N-({4-[(4-morpholin-4-ylcyclohexyl)amino]-3-nitrophenyl}sulfonyl)-2-(1H-pyrrolo[2,3-b]pyridin-5-yloxy)benzamide]
6.35	CC1(C)CCC(CN2CCN(c3ccc(C(=O)NS(=O)(=O)c4ccc(NCC5CCOCC5)c([N+](=O)[O-])c4)c(Oc4ccc5[nH]ccc5c4)c3)CC2)=C(c2ccc(Cl)cc2)C1 [Compound 18, 4-(4-{[2-(4-chlorophenyl)-4,4-dimethylcyclohex-1-en-1-yl]methyl}piperazin-1-yl)-2-(1H-indol-5-yloxy)-N-({3-nitro-4-[(tetrahydro-2H-pyran-4-ylmethyl)amino]phenyl}sulfonyl)benzamide]
6.24	COCCNc1ccc(S(=O)(=O)NC(=O)c2ccc(N3CCN(CC4=C(c5ccc(Cl)cc5)CC(C)(C)CC4)CC3)cc2Oc2ccc3[nH]ccc3c2)cc1[N+](=O)[O-] [Compound 20, 4-(4-{[2-(4-chlorophenyl)-4,4-dimethylcyclohex-1-en-1-yl]methyl}piperazin-1-yl)-2-(1H-indol-5-yloxy)-N-({4-[(2-methoxyethyl)amino]-3-nitrophenyl}sulfonyl)benzamide]
5.86	O=C(NS(=O)(=O)c1ccc(NCC2CCOCC2)c([N+](=O)[O-])c1)c1ccc(N2CCN(Cc3ccccc3-c3ccc(Cl)cc3)CC2)cc1Oc1ccc2[nH]ccc2c1 [Compound 87, 4-{4-[(4′-chloro-1,1′-biphenyl-2-yl)methyl]piperazin-1-yl}-2-(1H-indol-5-yloxy)-N-({3-nitro-4-[(tetrahydro-2H-pyran-4-ylmethyl)amino]phenyl}sulfonyl)benzamide]
6.21	CC1(C)CCC(CN2CCN(c3ccc(C(=O)NS(=O)(=O)c4ccc(NC5CCN(C6CCOCC6)CC5)c([N+](=O)[O-])c4)c(Oc4ccc5[nH]ccc5c4)c3)CC2)=C(c2ccc(Cl)cc2)C1 [Compound 89, 4-(4-{[2-(4-chlorophenyl)-4,4-dimethylcyclohex-1-en-1-yl]methyl}piperazin-1-yl)-2-(1H-indol-5-yloxy)-N-({3-nitro-4-[(1-tetrahydro-2H-pyran-4-ylpiperidin-4-yl)amino]phenyl}sulfonyl)benzamide]
6.69	CN1CCC(Nc2ccc(S(=O)(=O)NC(=O)c3ccc(N4CCN(CC5=C(c6ccc(Cl)cc6)CC(C)(C)CC5)CC4)cc3Oc3ccc4[nH]ccc4c3)cc2[N+](=O)[O-])CC1 [Compound 90, 4-(4-{[2-(4-chlorophenyl)-4,4-dimethylcyclohex-1-en-1-yl]methyl}piperazin-1-yl)-2-(1H-indol-5-yloxy)-N-({4-[(1-methylpiperidin-4-yl)amino]-3-nitrophenyl}sulfonyl)benzamide]
6.59	CN1CCN(Nc2ccc(S(=O)(=O)NC(=O)c3ccc(N4CCN(CC5=C(c6ccc(Cl)cc6)CC(C)(C)CC5)CC4)cc3Oc3ccc4[nH]ccc4c3)cc2[N+](=O)[O-])CC1 [Compound 91, 4-(4-{[2-(4-chlorophenyl)-4,4-dimethylcyclohex-1-en-1-yl]methyl}piperazin-1-yl)-2-(1H-indol-5-yloxy)-N-({4-[(4-methylpiperazin-1-yl)amino]-3-nitrophenyl}sulfonyl)benzamide]
5.6	CC1(C)CCC(CN2CCN(c3ccc(C(=O)NS(=O)(=O)c4ccc(OCC5COCCO5)c([N+](=O)[O-])c4)c(Oc4ccc5[nH]ccc5c4)c3)CC2)=C(c2ccc(Cl)cc2)C1 (stereo not shown) [Compound 92, 4-(4-{[2-(4-chlorophenyl)-4,4-dimethylcyclohex-1-en-1-yl]methyl}piperazin-1-yl)-N-{[4-(1,4-dioxan-2-ylmethoxy)-3-nitrophenyl]sulfonyl}-2-(1H-indol-5-yloxy)benzamide]
5.57	CC1(C)CCC(CN2CCN(c3ccc(C(=O)NS(=O)(=O)c4cnc(OCC5(F)CCOCC5)c(C(F)(F)F)c4)c(Oc4cnc5[nH]ccc5c4)c3)CC2)=C(c2ccc(Cl)cc2)C1 [Compound 208, 4-(4-{[2-(4-chlorophenyl)-4,4-dimethylcyclohex-1-en-1-yl]methyl}piperazin-1-yl)-N-{[6-[(4-fluorotetrahydro-2H-pyran-4-yl)methoxy]-5-(trifluoromethyl)pyridin-3-yl]sulfonyl}-2-(1H-pyrrolo[2,3-b]pyridin-5-yloxy)benzamide]
5.92	CC1(C)CCC(CN2CCN(c3ccc(C(=O)NS(=O)(=O)c4ccc(NCC5CCC(F)(F)CC5)c([N+](=O)[O-])c4)c(Oc4cnc5[nH]ccc5c4)c3)CC2)=C(c2ccc(Cl)cc2)C1 [Compound 239, 4-(4-{[2-(4-chlorophenyl)-4,4-dimethylcyclohex-1-en-1-yl]methyl}piperazin-1-yl)-N-[(4-{[(4,4-difluorocyclohexyl)methyl]amino}-3-nitrophenyl)sulfonyl]-2-(1H-pyrrolo[2,3-b]pyridin-5-yloxy)benzamide]
